Assay results as given in ChEMBL document CHEMBL6153174, “Design and Synthesis of Novel Deazapurine DNMT 1 Inhibitors with In Vivo Efficacy in DLBCL” (J Med Chem, 2025).

Assays:
TMD8 = experiment: Induction of cell cycle arrest in human TMD8 cells assessed as accumulation of cells at G0-G1 phase at 0.5 uM incubated for 24 hrs by PI staining based flow cytometry analysis (reference value: 40.7%); type: functional
[1] = Subacute toxicity in Balb/C mouse assessed as change in body weight at 10 to 30 mg/kg, iv administered three times in a week for 2 weeks; type: organism-based; conditions: in vivo, 336 h, dose 10-30 mg/kg
[2] = Subacute toxicity in Balb/C mouse assessed as effect on platelet at 30 mg/kg, iv administered three times in a week for 2 weeks; type: organism-based; conditions: in vivo, 336 h

## CN1CCC(Nc2nc(-c3ccnc(F)c3)nc3c2ccn3CCCN2CCCC2)CC1
TMD8
  Activity: 39%
[1]
  Activity: Non-toxic
[2]
  Activity: Non-toxic
